Results published in BigSolDB 2.1.

COC(=O)[C@@H](N)CS.Cl
Settings	solubility (mole fraction)
in 1,4-dioxane, 288.15 K	0.00083
in 1,4-dioxane, 293.15 K	0.001
in 1,4-dioxane, 298.15 K	0.0013
in 1,4-dioxane, 303.15 K	0.00147
in 1,4-dioxane, 308.15 K	0.00184
in 1,4-dioxane, 313.15 K	0.00211
in 1,4-dioxane, 318.15 K	0.00232
in 1,4-dioxane, 323.15 K	0.00269
in 1,4-dioxane, 328.15 K	0.00305
in 1,4-dioxane, 333.15 K	0.00349
in 2-butanone, 283.15 K	0.00065
in 2-butanone, 288.15 K	0.00084
in 2-butanone, 293.15 K	0.00108
in 2-butanone, 298.15 K	0.00132
in 2-butanone, 303.15 K	0.00164
in 2-butanone, 308.15 K	0.00192
in 2-butanone, 313.15 K	0.00225
in 2-butanone, 318.15 K	0.0025
in 2-butanone, 323.15 K	0.00333
in 2-butanone, 328.15 K	0.00418
in 2-butanone, 333.15 K	0.00573
in acetone, 283.15 K	0.00062
in acetone, 288.15 K	0.00073
in acetone, 293.15 K	0.00082
in acetone, 298.15 K	0.00087
in acetone, 303.15 K	0.00093
in acetone, 308.15 K	0.00101
in acetone, 313.15 K	0.00111
in acetone, 318.15 K	0.00124
in acetone, 323.15 K	0.00152
in acetonitrile, 283.15 K	0.00021
in acetonitrile, 288.15 K	0.00029
in acetonitrile, 293.15 K	0.00032
in acetonitrile, 298.15 K	0.0004
in acetonitrile, 303.15 K	0.00043
in acetonitrile, 308.15 K	0.0005
in acetonitrile, 313.15 K	0.00062
in acetonitrile, 318.15 K	0.00091
in acetonitrile, 323.15 K	0.00098
in acetonitrile, 328.15 K	0.00104
in acetonitrile, 333.15 K	0.00123
in dichloromethane, 283.15 K	5e-05
in dichloromethane, 288.15 K	7e-05
in dichloromethane, 293.15 K	9e-05
in dichloromethane, 298.15 K	0.00011
in dichloromethane, 303.15 K	0.00013
in ethanol, 283.15 K	0.0232
in ethanol, 288.15 K	0.0257
in ethanol, 293.15 K	0.029
in ethanol, 298.15 K	0.0337
in ethanol, 303.15 K	0.0428
in ethanol, 308.15 K	0.0471
in ethanol, 313.15 K	0.0536
in ethanol, 318.15 K	0.0622
in ethanol, 323.15 K	0.0722
in ethanol, 328.15 K	0.0864
in ethanol, 333.15 K	0.1
in ethyl acetate, 283.15 K	7e-05
in ethyl acetate, 288.15 K	0.0001
in ethyl acetate, 293.15 K	0.00012
in ethyl acetate, 298.15 K	0.00015
in ethyl acetate, 303.15 K	0.00018
in ethyl acetate, 308.15 K	0.00023
in ethyl acetate, 313.15 K	0.00027
in ethyl acetate, 318.15 K	0.0003
in ethyl acetate, 323.15 K	0.00032
in ethyl acetate, 328.15 K	0.00042
in ethyl acetate, 333.15 K	0.00052
in isobutanol, 283.15 K	0.00393
in isobutanol, 288.15 K	0.00437
in isobutanol, 293.15 K	0.00478
in isobutanol, 298.15 K	0.00541
in isobutanol, 303.15 K	0.00634
in isobutanol, 308.15 K	0.00718
in isobutanol, 313.15 K	0.0086
in isobutanol, 318.15 K	0.00972
in isobutanol, 323.15 K	0.0125
in isobutanol, 328.15 K	0.0162
in isobutanol, 333.15 K	0.0196
in isopropanol, 283.15 K	0.0036
in isopropanol, 288.15 K	0.00389
in isopropanol, 293.15 K	0.00422
in isopropanol, 298.15 K	0.00512
in isopropanol, 303.15 K	0.00585
in isopropanol, 308.15 K	0.00648
in isopropanol, 313.15 K	0.00806
in isopropanol, 318.15 K	0.0097
in isopropanol, 323.15 K	0.0127
in isopropanol, 328.15 K	0.0153
in isopropanol, 333.15 K	0.0188
in methanol, 283.15 K	0.0906
in methanol, 288.15 K	0.0944
in methanol, 293.15 K	0.106
in methanol, 298.15 K	0.114
in methanol, 303.15 K	0.127
in methanol, 308.15 K	0.139
in methanol, 313.15 K	0.155
in methanol, 318.15 K	0.168
in methanol, 323.15 K	0.187
in methanol, 328.15 K	0.212
in methanol, 333.15 K	0.257
in n-butanol, 283.15 K	0.00537
in n-butanol, 288.15 K	0.00599
in n-butanol, 293.15 K	0.0067
in n-butanol, 298.15 K	0.00847
in n-butanol, 303.15 K	0.0106
in n-butanol, 308.15 K	0.0124
in n-butanol, 313.15 K	0.0136
in n-butanol, 318.15 K	0.0164
in n-butanol, 323.15 K	0.0198
in n-butanol, 328.15 K	0.0238
in n-butanol, 333.15 K	0.0306
in n-pentanol, 283.15 K	0.0039
in n-pentanol, 288.15 K	0.00462
in n-pentanol, 293.15 K	0.0054
in n-pentanol, 298.15 K	0.00662
in n-pentanol, 303.15 K	0.00824
in n-pentanol, 308.15 K	0.00924
in n-pentanol, 313.15 K	0.0111
in n-pentanol, 318.15 K	0.0125
in n-pentanol, 323.15 K	0.0149
in n-pentanol, 328.15 K	0.0187
in n-pentanol, 333.15 K	0.0236
in n-propanol, 283.15 K	0.00805
in n-propanol, 288.15 K	0.00883
in n-propanol, 293.15 K	0.0106
in n-propanol, 298.15 K	0.0124
in n-propanol, 303.15 K	0.0145
in n-propanol, 308.15 K	0.0161
in n-propanol, 313.15 K	0.0193
in n-propanol, 318.15 K	0.0219
in n-propanol, 323.15 K	0.0272
in n-propanol, 328.15 K	0.0306
in n-propanol, 333.15 K	0.0384
in sec-butanol, 283.15 K	0.00252
in sec-butanol, 288.15 K	0.00265
in sec-butanol, 293.15 K	0.00283
in sec-butanol, 298.15 K	0.00372
in sec-butanol, 303.15 K	0.00416
in sec-butanol, 308.15 K	0.00455
in sec-butanol, 313.15 K	0.00513
in sec-butanol, 318.15 K	0.0063
in sec-butanol, 323.15 K	0.0082
in sec-butanol, 328.15 K	0.00958
in sec-butanol, 333.15 K	0.0112
